Values of other authors, collected in patent US11369619B2, “Composition for curing migraine headaches” (priority 2014, dated 2022).

Columns and labels:
male mice = conditions: intravenous
migraine = conditions: topical administration
[1] = taken orally, dosages of several hundred milligrams per day

SMILES: C[C@@H]1C[C@H]2[C@@H]3CCC4=CC(=O)C=C[C@]4(C)[C@@]3(F)[C@@H](O)C[C@]2(C)[C@@]1(O)C(=O)COP(=O)(O)O [Dexamethasone phosphate]
- solubility in water: practically insoluble in water

SMILES: C[C@@H]1C[C@H]2[C@@H]3CCC4=CC(=O)C=C[C@]4(C)[C@@]3(F)[C@@H](O)C[C@]2(C)[C@@]1(O)C(=O)COP(=O)(O)O [dexamethasone sodium phosphate]
- LD50 (male mice): 794 mg/kg

SMILES: CCN(CC)CC(=O)Nc1c(C)cccc1C [lidocaine]
- patients in whom treatment was effective (migraine): about 55%

SMILES: Cc1ncc(C[n+]2csc(CCO)c2C)c(N)n1 [thiamine]
- adverse effects [1]: no reports of adverse effects
